Data set [1] relates to Staphylococcus aureus. Briefly: Antibacterial activity against methicillin-resistant Staphylococcus aureus 222 assessed as inhibition of bacterial growth incubated for 24 hrs by broth microdilution method. It is filed as functional.
The nature of data set [2]: Aqueous solubility of the compound in physiological saline measured after 12 hrs by UV spectrophotometric analysis. It is filed as physicochemical.
For data set [3], the system named is Klebsiella pneumoniae. Description: Antibacterial activity against multidrug-resistant Klebsiella pneumoniae 893 assessed as inhibition of bacterial growth incubated for 24 hrs by broth microdilution method. In kind it is functional. For orientation: Dilution methods test growth across graded concentrations, often in twofold steps.
The test system of data set [4] is Staphylococcus aureus. Description: Antibacterial activity against methicillin-resistant Staphylococcus aureus ATCC 33591 infected in Kunming mouse assessed as reduction in bacterial load in kidney at 5 to 10 mg/kg, ip for 2 days starting from 1 hr post-infection by hematoxylin-eosin staining based analysis. The conditions noted are these: dose 5-10 mg/kg, time 2.0 day. In kind it is functional, organism-based.

In data set [5] the test system is Escherichia coli. Description: Antibacterial activity against Escherichia coli CMCC 44103 assessed as inhibition of bacterial growth incubated for 24 hrs by broth microdilution method. It is filed as functional.
A short description of data set [6]: Cytotoxicity against human HEK293 cells assessed as reduction in cell viability measured after 48 hrs by CCK8 assay. In kind it is toxicity, cell-based.
In data set [7] the test system is Staphylococcus aureus. Description: Antibacterial activity against methicillin-resistant Staphylococcus aureus 575 assessed as inhibition of bacterial growth incubated for 24 hrs by broth microdilution method. It is filed as functional.

Activity calls are given as the source filed them.

In general, MIC refers to the smallest concentration in the dilution series that meets the test's criterion for growth inhibition. Usually solubility stands for the concentration that dissolves in the medium under given conditions. The term CC50 denotes the concentration that lowers cell viability or growth by half.

Turning to `C=C[C@]1(C)C[C@@H](OC(=O)CSc2nc(-c3cc[n+](Cc4ccc(C)cc4)cc3)cs2)[C@]2(C)[C@H](C)CC[C@]3(CCC(=O)[C@H]32)[C@@H](C)[C@@H]1O.[Br-]`, the MIC in data set [1] was found to be 1 µg/mL; in data set [3], 16 µg/mL; in data set [5] it was 0.5 µg/mL; in data set [7], 8 µg/mL. Further, the concentration in solution in data set [2] (solubility at 12 h) came to 862 µM. In data set [4], the result was Active. In data set [6], the CC50 at 48 h was greater than 100 µM.

The values are drawn from ChEMBL document CHEMBL5338747, “Discovery of Quaternized Pyridine-Thiazole-Pleuromutilin Derivatives with Broad-Spectrum Antibacterial and Potent Anti-MRSA Activity” (J Med Chem, 2023).
